Measurements: patent publication US20240150377A1, “MODULATORS OF CYSTIC FIBROSIS TRANSMEMBRANE CONDUCTANCE REGULATOR” (VERTEX PHARMACEUTICALS INCORPORATED, priority 2020, published 2024)
pEC50: −log10 of the molar value. Where two headings read alike, the source gives them in different places.

Molecular target: T1, CFTR (Homo sapiens, UniProt P13569, DEL508-508)
T1 construct: endogenous in cells; host or cells: primary human bronchial epithelial cells from CF subjects (F508del/MF-HBE), differentiated at air-liquid interface
Experiment: HBE assay: Ussing chamber assay of CFTR-mediated short-circuit currents
Format: cell-based
Settings: for pEC50: read-out: HBE EC50
In short: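 CFTR-mediated Isc (μA/cm²) equals the peak response to apical 20 μM forskolin minus the residual after a 20 μM each BPO/GlyH-101/CFTR inhibitor 172 cocktail, recorded in Ussing chambers at Vhold 0 mV, 37 °C, pH 7.4, with 30 μM apical amiloride. Cells were F508del/MF HBE cultures preincubated 18-24 h with corrector (concentration range or 10 μM) plus 1 μM ivacaftor in 20% human serum.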

[1] = Table 12, read-out: HBE Max Activity (%)
[2] = Table 12, read-out: HBE Activity at 10 μM (%)
[3] = Table 11, read-out: HBE Max Activity (%)
[4] = Table 10, read-out: HBE activity at 10 (μM) (%)
[5] = Table 10, read-out: HBE Max activity (%)

T1 sequence (P13569 with tags, fused parts or gaps DEL508-508): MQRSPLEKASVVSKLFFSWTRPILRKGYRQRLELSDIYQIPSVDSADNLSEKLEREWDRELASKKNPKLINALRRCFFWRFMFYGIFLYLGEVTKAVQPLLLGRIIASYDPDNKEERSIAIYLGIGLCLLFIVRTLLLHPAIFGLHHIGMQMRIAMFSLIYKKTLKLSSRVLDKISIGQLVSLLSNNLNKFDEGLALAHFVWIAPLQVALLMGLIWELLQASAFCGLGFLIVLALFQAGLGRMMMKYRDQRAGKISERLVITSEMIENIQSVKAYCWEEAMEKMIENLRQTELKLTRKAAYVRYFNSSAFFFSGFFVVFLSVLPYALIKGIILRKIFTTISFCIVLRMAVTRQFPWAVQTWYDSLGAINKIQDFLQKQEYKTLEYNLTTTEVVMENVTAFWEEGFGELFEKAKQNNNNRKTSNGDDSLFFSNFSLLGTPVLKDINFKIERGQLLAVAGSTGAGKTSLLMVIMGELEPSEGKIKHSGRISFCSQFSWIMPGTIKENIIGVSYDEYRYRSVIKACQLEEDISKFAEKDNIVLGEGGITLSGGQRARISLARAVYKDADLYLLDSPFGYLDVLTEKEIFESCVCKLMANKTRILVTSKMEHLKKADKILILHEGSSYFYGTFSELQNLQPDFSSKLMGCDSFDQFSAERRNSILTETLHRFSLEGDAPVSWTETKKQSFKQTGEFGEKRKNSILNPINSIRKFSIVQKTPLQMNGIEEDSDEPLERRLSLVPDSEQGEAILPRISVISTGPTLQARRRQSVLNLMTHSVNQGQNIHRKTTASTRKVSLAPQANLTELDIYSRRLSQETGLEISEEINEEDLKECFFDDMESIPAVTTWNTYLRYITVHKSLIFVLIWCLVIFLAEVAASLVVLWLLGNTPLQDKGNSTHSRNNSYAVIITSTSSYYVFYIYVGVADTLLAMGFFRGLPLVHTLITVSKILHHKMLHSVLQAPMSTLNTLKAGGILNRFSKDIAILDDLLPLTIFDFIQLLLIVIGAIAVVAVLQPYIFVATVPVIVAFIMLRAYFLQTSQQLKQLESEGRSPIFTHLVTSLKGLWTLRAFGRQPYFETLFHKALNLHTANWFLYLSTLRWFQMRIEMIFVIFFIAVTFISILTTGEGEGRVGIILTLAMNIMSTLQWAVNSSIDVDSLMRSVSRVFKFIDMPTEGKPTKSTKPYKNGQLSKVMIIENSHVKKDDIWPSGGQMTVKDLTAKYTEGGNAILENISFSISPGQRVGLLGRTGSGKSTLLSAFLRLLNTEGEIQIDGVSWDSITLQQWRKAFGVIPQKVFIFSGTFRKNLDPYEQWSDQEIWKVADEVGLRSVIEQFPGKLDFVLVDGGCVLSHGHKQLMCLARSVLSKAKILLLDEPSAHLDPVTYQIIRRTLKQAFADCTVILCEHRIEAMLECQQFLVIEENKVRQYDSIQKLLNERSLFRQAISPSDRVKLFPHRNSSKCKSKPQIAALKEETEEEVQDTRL

Cc1cccc(C)c1-c1cc2nc(n1)NS(=O)(=O)c1cccc(c1)C(=O)N(Cc1cccc(N(C)C3CC4(CCC4)C3)n1)[C@H](CC(C)(C)C)CO2 [Compound 439]
pEC50 (Table 12): > 6.00
Emax [1]: > 60%

Cc1cccc(C)c1-c1cc2nc(n1)NS(=O)(=O)c1cccc(c1)C(=O)N(Cc1cccc(NC34CC(C3)C4)n1)[C@H](CC(C)(C)C)CO2 [Compound 440]
pEC50 (Table 12): > 6.00
Emax [1]: > 60%

Cc1cccc(C)c1-c1cc2nc(n1)NS(=O)(=O)c1cccc(c1)C(=O)N(Cc1cncc(N(C)C3CC4(CCC4)C3)n1)[C@H](CC(C)(C)C)CO2 [Compound 441]
pEC50 (Table 12): > 6.00
Emax [1]: > 60%

Cc1cccc(C)c1-c1cc2nc(n1)NS(=O)(=O)c1cccc(c1)C(=O)N(Cc1cncc(N(C)CC3C4(CC4)C34CC4)n1)[C@H](CC(C)(C)C)CO2 [Compound 442]
pEC50 (Table 12): > 6.00
Emax [1]: > 60%

Cc1cccc(C)c1-c1cc2nc(n1)NS(=O)(=O)c1cccc(c1)C(=O)N(Cc1cncc(N(C)C34CC(C3)C4)n1)[C@H](CC(C)(C)C)CO2 [Compound 443]
pEC50 (Table 12): > 6.00
Emax [1]: > 60%

COCC(C)N(C)c1cncc(CN2C(=O)c3cccc(c3)S(=O)(=O)Nc3nc(cc(-c4c(C)cccc4C)n3)OC[C@H]2CC(C)(C)C)n1 (stereo partly drawn) [Compound 444]
pEC50 (Table 12): > 6.00
Emax [1]: > 60%

Cc1cccc(C)c1-c1cc2nc(n1)NS(=O)(=O)c1cccc(c1)C(=O)N(Cc1nccc(N(C)C3CC4(CCC4)C3)n1)[C@H](CC(C)(C)C)CO2 [Compound 445]
pEC50 (Table 12): > 6.00
Emax [1]: > 60%

COC[C@@H](C)N(C)c1ccnc(CN2C(=O)c3cccc(c3)S(=O)(=O)Nc3nc(cc(-c4c(C)cccc4C)n3)OC[C@H]2CC(C)(C)C)n1 [Compound 446]
pEC50 (Table 12): > 6.00
Emax [1]: > 60%

Cc1cccc(C)c1-c1cc2nc(n1)NS(=O)(=O)c1cccc(c1)C(=O)N(Cc1nccc(N(C)C34CC(C3)C4)n1)[C@H](CC(C)(C)C)CO2 [Compound 447]
activation at 10 µM [2]: > 600%

COCC(C)N(C)c1ccnc(CN2C(=O)c3cccc(c3)S(=O)(=O)Nc3nc(cc(-c4c(C)cccc4C)n3)OC[C@H]2CC(C)(C)C)n1 (stereo partly drawn) [Compound 448]
activation at 10 µM [2]: > 600%

Cc1cccc(C)c1-c1cc2nc(n1)NS(=O)(=O)c1cccc(c1)C(=O)N(Cc1cc(C3CCOCC3)[nH]n1)[C@H](CC(C)(C)C)CO2 [Compound 449]
activation at 10 µM [2]: > 600%

Cc1cccc(C)c1-c1cc2nc(n1)NS(=O)(=O)c1cccc(c1)C(=O)N(CC1(C(=O)O)CC1)[C@H](CC(C)(C)C)CO2 [Compound 450]
activation at 10 µM [2]: 30 to 60%
pEC50 (Table 12): > 6.00

Cc1cccc(C)c1-c1cc2nc(n1)NS(=O)(=O)c1cccc(c1)C(=O)N(Cc1nccc(N(C)[C@@H]3CCC34CCC4)n1)[C@H](CC(C)(C)C)CO2 [Compound 451]
pEC50 (Table 12): > 6.00
Emax [1]: > 60%

Cc1cccc(C)c1-c1cc2nc(n1)NS(=O)(=O)c1cccc(c1)C(=O)N(CC(=O)O)[C@H](CC(C)(C)C)CO2 [Compound 453]
pEC50 (Table 12): 4.52 to 5.52
Emax [1]: > 60%

Cc1cccc(C)c1-c1cc2nc(n1)NS(=O)(=O)c1cccc(c1)C(=O)N(Cc1ccn(CC(C)C)n1)[C@H](CC(C)(C)C)CO2 [Compound 454]
pEC50 (Table 12): > 6.00
Emax [1]: > 60%

Cc1cccc(C)c1-c1cc2nc(n1)NS(=O)(=O)c1cccc(c1)C(=O)N(Cc1cc3n(n1)CCC3)[C@H](CC(C)(C)C)CO2 [Compound 455]
activation at 10 µM [2]: > 600%

Cc1cccc(C)c1-c1cc2nc(n1)NS(=O)(=O)c1cccc(c1)C(=O)N(Cc1cc3n(n1)CCCO3)[C@H](CC(C)(C)C)CO2 [Compound 456]
activation at 10 µM [2]: > 600%

Cc1cccc(C)c1-c1cc2nc(n1)NS(=O)(=O)c1cccc(c1)C(=O)N(Cc1nc(N(C)CC(C)(C)C)ccc1C(F)(F)F)[C@H](CC(C)(C)C)CO2 [Compound 457]
pEC50 (Table 12): > 6.00
Emax [1]: > 60%

Cc1cccc(C)c1-c1cc2nc(n1)NS(=O)(=O)c1cccc(c1)C(=O)N(Cc1nc(N(C)C(C)C)ccc1C(F)(F)F)[C@H](CC(C)(C)C)CO2 [Compound 458]
activation at 10 µM [2]: > 600%

Cc1cccc(C)c1-c1cc2nc(n1)NS(=O)(=O)c1cccc(c1)C(=O)N(Cc1nccc(N(C)C(C)C)n1)[C@H](CC1CC1)CO2 [Compound 459]
pEC50 (Table 12): > 6.00
Emax [1]: > 60%

Cc1cccc(C)c1-c1cc2nc(n1)NS(=O)(=O)c1cccc(c1)C(=O)N(Cc1ccn(C3CCCC3)n1)[C@H](CC(C)(C)C)CO2 [Compound 460]
pEC50 (Table 12): > 6.00
Emax [1]: > 60%

Cc1cccc(C)c1-c1cc2nc(n1)NS(=O)(=O)c1cccc(c1)C(=O)N(Cc1ccn(C3CCC3)n1)[C@H](CC(C)(C)C)CO2 [Compound 461]
pEC50 (Table 12): > 6.00
Emax [1]: > 60%

Cc1cccc(C)c1-c1cc2nc(n1)NS(=O)(=O)c1cccc(c1)C(=O)N(Cc1ncc(N3CCC(C)(C)CC3)cn1)[C@H](CC1CC1)CO2 [Compound 462]
pEC50 (Table 12): > 6.00
Emax [1]: > 60%

Cc1cccc(C)c1-c1cc2nc(n1)NS(=O)(=O)c1cccc(c1)C(=O)N(Cc1cccc(N3CCC[C@H]3C)n1)[C@H](CC1CC1)CO2 [Compound 463]
pEC50 (Table 12): > 6.00
Emax [1]: > 60%

COCCN(C)c1cccc(CCN2C(=O)c3cccc(c3)S(=O)(=O)Nc3nc(cc(-c4c(C)cccc4C)n3)OC[C@H]2CC(C)(C)C)n1 [Compound 464]
pEC50 (Table 11): > 6.00
Emax [3]: > 60%

Cc1cccc(CN2C(=O)c3cccc(c3)S(=O)(=O)Nc3nc(cc(-c4c(C)cccc4C)n3)OC[C@H]2CC(C)(C)C)n1 [Compound 465]
pEC50 (Table 11): > 6.00
Emax [3]: > 60%

Cc1cccc(C)c1-c1cc2nc(n1)NS(=O)(=O)c1cccc(c1)C(=O)N(Cc1ccnc(N3CCOCC3)c1)[C@H](CC(C)(C)C)CO2 [Compound 466]
activation at 10 µM [4]: > 60%
Emax [5]: > 60%

Cc1cccc(C)c1-c1cc2nc(n1)NS(=O)(=O)c1cccc(c1)C(=O)N(Cc1ccc(C3CCCCC3)c(C)n1)[C@H](CC(C)(C)C)CO2 [Compound 467]
activation at 10 µM [4]: > 60%

Cc1cccc(C)c1-c1cc2nc(n1)NS(=O)(=O)c1cccc(c1)C(=O)N(Cc1cccc(OCC(C)(C)C)n1)[C@H](CC(C)(C)C)CO2 [Compound 469]
Emax [5]: > 60%

Cc1cccc(C)c1-c1cc2nc(n1)NS(=O)(=O)c1cccc(c1)C(=O)N(Cc1cccc(-n3ccc(C(C)(C)C)n3)n1)[C@H](CC(C)(C)C)CO2 [Compound 470]
Emax [5]: > 60%

Cc1cccc(C)c1-c1cc2nc(n1)NS(=O)(=O)c1cccc(c1)C(=O)N(Cc1cccc(NCC(C)(C)C)n1)[C@H](CC(C)(C)C)CO2 [Compound 471]
Emax [5]: > 60%

COCCCNc1cccc(CN2C(=O)c3cccc(c3)S(=O)(=O)Nc3nc(cc(-c4c(C)cccc4C)n3)OC[C@H]2CC(C)(C)C)n1 [Compound 472]
activation at 10 µM [4]: > 60%
Emax [5]: > 60%

Cc1cccc(C)c1-c1cc2nc(n1)NS(=O)(=O)c1cccc(c1)C(=O)N(CCc1ccc(N3CCC(C)(C)C3)nc1)[C@H](CC(C)(C)C)CO2 [Compound 473]
pEC50 (Table 11): > 6.00
Emax [3]: > 60%

Cc1cccc(C)c1-c1cc2nc(n1)NS(=O)(=O)c1cccc(c1)C(=O)N(Cc1cccc(N3CCC(C)(C)CC3)n1)[C@H](CC(C)(C)C)CO2 [Compound 474]
pEC50 (Table 11): > 6.00
Emax [3]: > 60%

COCCNc1cccc(CN2C(=O)c3cccc(c3)S(=O)(=O)Nc3nc(cc(-c4c(C)cccc4C)n3)OC[C@H]2CC(C)(C)C)n1 [Compound 475]
Emax [5]: > 60%

Cc1cccc(C)c1-c1cc2nc(n1)NS(=O)(=O)c1cccc(c1)C(=O)N(Cc1ccc(-c3ccccc3)cn1)[C@H](CC(C)(C)C)CO2 [Compound 476]
HBE Max activity (%) (Table 10): +++ (+++ is >60%)
pEC50 (Table 10): 5.52 to 6.00

Cc1cccc(C)c1-c1cc2nc(n1)NS(=O)(=O)c1cccc(c1)C(=O)N(Cc1ccc(NCC(C)(C)C)cn1)[C@H](CC(C)(C)C)CO2 [Compound 477]
Emax [5]: > 60%

Cc1cccc(C)c1-c1cc2nc(n1)NS(=O)(=O)c1cccc(c1)C(=O)N(Cc1ccc(N3CCN(C)CC3)cn1)[C@H](CC(C)(C)C)CO2 [Compound 478]
Emax [5]: > 60%

Cc1ccnc(CN2C(=O)c3cccc(c3)S(=O)(=O)Nc3nc(cc(-c4c(C)cccc4C)n3)OC[C@H]2CC(C)(C)C)n1 [Compound 479]
activation at 10 µM [4]: > 60%
Emax [5]: > 60%

Cc1cccc(C)c1-c1cc2nc(n1)NS(=O)(=O)c1cccc(c1)C(=O)N(Cc1ccn(C(C)C)n1)[C@H](CC(C)(C)C)CO2 [Compound 480]
Emax [5]: > 60%

Cc1cccc(C)c1-c1cc2nc(n1)NS(=O)(=O)c1cccc(c1)C(=O)N(Cc1cnn(C(C)(C)C)c1)[C@H](CC(C)(C)C)CO2 [Compound 481]
Emax [5]: > 60%

Cc1cccc(C)c1-c1cc2nc(n1)NS(=O)(=O)c1cccc(c1)C(=O)N(Cc1c(C)nn(C(C)(C)C)c1C)[C@H](CC(C)(C)C)CO2 [Compound 482]
activation at 10 µM [4]: > 60%

Cc1cccc(C)c1-c1cc2nc(n1)NS(=O)(=O)c1cccc(c1)C(=O)N(Cc1c(C)n[nH]c1C)[C@H](CC(C)(C)C)CO2 [Compound 485]
activation at 10 µM [4]: > 60%

Cc1cccc(C)c1-c1nc2nc(c1C)OC[C@@H](CC(C)(C)C)N(Cc1ncc(N(C)C)cc1N(C)C)C(=O)c1cccc(c1)S(=O)(=O)N2 [Compound 486]
activation at 10 µM [4]: > 60%

Cc1cccc(C)c1-c1cc2nc(n1)NS(=O)(=O)c1cccc(c1)C(=O)N(Cc1cnn(CC(C)C)c1)[C@H](CC(C)(C)C)CO2 [Compound 487]
Emax [5]: > 60%

COCCN(C)c1cccc(CN2C(=O)c3cccc(c3)S(=O)(=O)Nc3nc(cc(-c4c(C)cccc4C)n3)OC[C@H]2CC(C)(C)C)n1 [Compound 488]
pEC50 (Table 10): > 6.00
Emax [5]: > 60%

Cc1cccc(C)c1-c1cc2nc(n1)NS(=O)(=O)c1cccc(c1)C(=O)N(Cc1cccc(N3CCCCC3)n1)[C@H](CC(C)(C)C)CO2 [Compound 489]
pEC50 (Table 10): > 6.00
Emax [5]: > 60%
